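Where inhibition never reached the appropriate level, the endpoint shown equals the highest concentration tested. Otherwise, values were interpolated linearly from a five-concentration, 48-hour dose response in 96-well plates. GI50 is the concentration that inhibits growth by half.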 Active and inactive are the calls of the source. No stated cut-off is given here; in the data, active = GI50 up to about 1.1 µM and inactive = higher.
Experiments:
Assay in all cases: NCI-60 cell line screen, 48 h
786-0 = test system: 786-0
A549 = test system: A549
ACHN = test system: ACHN
CAKI-1 = test system: CAKI-1
CCRF-CEM = test system: CCRF-CEM
COLO 205 = test system: COLO 205
HOP-92 = test system: HOP-92
KM12 = test system: KM12
M14 = test system: M14
MOLT-4 = test system: MOLT-4
NCI-H226 = test system: NCI-H226
OVCAR-3 = test system: OVCAR-3
OVCAR-5 = test system: OVCAR-5
SK-MEL-28 = test system: SK-MEL-28
SNB-19 = test system: SNB-19
SW-620 = test system: SW-620
T47D = test system: T47D
TK-10 = test system: TK-10
OVCAR-4 = test system: OVCAR-4

SMILES	GI50 (786-0)	GI50 (A549)	GI50 (ACHN)	GI50 (CAKI-1)	GI50 (CCRF-CEM)	GI50 (COLO 205)	GI50 (HOP-92)	GI50 (KM12)	GI50 (M14)	GI50 (MOLT-4)	GI50 (NCI-H226)	GI50 (OVCAR-3)	GI50 (OVCAR-5)	GI50 (SK-MEL-28)	GI50 (SNB-19)	GI50 (SW-620)	GI50 (T47D)	GI50 (TK-10)	GI50 (OVCAR-4)
O=c1n(/N=C/c2ccccc2)c(=O)n2n1C1C=CC2CC1	> 100 µM (inactive)	> 100 µM (inactive)	> 100 µM (inactive)	> 100 µM (inactive)	> 100 µM (inactive)	> 100 µM (inactive)	> 100 µM (inactive)	> 100 µM (inactive)	> 100 µM (inactive)	> 100 µM (inactive)	> 100 µM (inactive)	> 100 µM (inactive)	> 100 µM (inactive)	> 100 µM (inactive)	> 100 µM (inactive)	> 100 µM (inactive)	> 100 µM (inactive)	> 100 µM (inactive)	–
O=C(O)C1CCCCC1c1c2ccc(=O)cc-2oc2cc(O)ccc12 (centres undefined)	32.1 µM (inactive)	38.4 µM (inactive)	31.8 µM (inactive)	31.8 µM (inactive)	42.8 µM (inactive)	34.1 µM (inactive)	12 µM (inactive)	19.9 µM (inactive)	26.1 µM (inactive)	23.8 µM (inactive)	–	24.4 µM (inactive)	29.4 µM (inactive)	35.6 µM (inactive)	48.6 µM (inactive)	44.9 µM (inactive)	19.1 µM (inactive)	52.1 µM (inactive)	23.1 µM (inactive)
CCCCCCC(C)CC(CCCCCC)NCCOC(=O)c1ccc([N+](=O)[O-])cc1 (centres undefined)	12.6 µM (inactive)	15.1 µM (inactive)	13.3 µM (inactive)	–	4.52 µM (inactive)	3.18 µM (inactive)	5.82 µM (inactive)	10.1 µM (inactive)	–	–	13.9 µM (inactive)	–	18.5 µM (inactive)	–	15.6 µM (inactive)	12.8 µM (inactive)	10.7 µM (inactive)	10.6 µM (inactive)	11.5 µM (inactive)
Nc1nc(Nc2ccc(Cl)cc2)sc1C(=O)c1c[nH]c2ccccc12	4.66 µM (inactive)	13.6 µM (inactive)	12.4 µM (inactive)	–	15 µM (inactive)	3.8 µM (inactive)	20 µM (inactive)	14 µM (inactive)	11.2 µM (inactive)	–	19.3 µM (inactive)	13.8 µM (inactive)	21.1 µM (inactive)	15.4 µM (inactive)	14.3 µM (inactive)	15.7 µM (inactive)	8.32 µM (inactive)	13 µM (inactive)	14.7 µM (inactive)
COc1ccc(Oc2cccc(/C=C3/C(=O)Nc4ccccc43)c2)cc1	11.8 µM (inactive)	7.19 µM (inactive)	11.6 µM (inactive)	6.87 µM (inactive)	4.21 µM (inactive)	3.73 µM (inactive)	3.53 µM (inactive)	5.02 µM (inactive)	11.9 µM (inactive)	4 µM (inactive)	–	7.89 µM (inactive)	17.7 µM (inactive)	7.06 µM (inactive)	6.1 µM (inactive)	11.1 µM (inactive)	1.77 µM (inactive)	15.2 µM (inactive)	14 µM (inactive)
CCOC(=O)c1[nH]c2nc(SC)nc(Nc3ccccc3Cl)c2c1N	20.2 µM (inactive)	13.2 µM (inactive)	18.3 µM (inactive)	25.5 µM (inactive)	15.3 µM (inactive)	28.9 µM (inactive)	–	31.3 µM (inactive)	37.8 µM (inactive)	8.55 µM (inactive)	15.3 µM (inactive)	20.7 µM (inactive)	19.6 µM (inactive)	31.3 µM (inactive)	17.5 µM (inactive)	27.2 µM (inactive)	13.1 µM (inactive)	22.5 µM (inactive)	14.6 µM (inactive)
Oc1ccc2ccccc2c1/C=N/Cc1c(O)ccc2ccccc12	47.2 µM (inactive)	86.7 µM (inactive)	28.4 µM (inactive)	87.7 µM (inactive)	6.25 µM (inactive)	> 100 µM (inactive)	26.4 µM (inactive)	55.2 µM (inactive)	44.5 µM (inactive)	13.2 µM (inactive)	–	18.4 µM (inactive)	> 100 µM (inactive)	> 100 µM (inactive)	36.9 µM (inactive)	52.4 µM (inactive)	19.1 µM (inactive)	70.5 µM (inactive)	> 100 µM (inactive)
COc1cccc(-c2cc(O)c3c(C)cc(C)nc3n2)c1	0.435 µM (active)	0.78 µM (active)	0.555 µM (active)	–	0.431 µM (active)	0.21 µM (active)	2.74 µM (inactive)	0.264 µM (active)	0.406 µM (active)	0.531 µM (active)	0.394 µM (active)	0.228 µM (active)	2.57 µM (inactive)	0.83 µM (active)	0.714 µM (active)	0.333 µM (active)	14.5 µM (inactive)	40.8 µM (inactive)	4.09 µM (inactive)
